One test concerns the target T1, PI3Kγ (p120γ) (Homo sapiens, UniProt P48736).
T1 construct: purchased BPS Bioscience (San Diego, Calif.) or Millipore (Billerica, Mass.)
The test is described as follows: HTRF assay, potency against active PI3Kγ. In kind it is biochemical. As to conditions: [ATP]=50 μM, [di-C8-PIP2]=10 μM, 30 min pre-incubation, read-out: PI3Kγ Inhibition. The procedure, abridged:
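End-point competition HTRF: enzyme (p110β/p85α 0.75 nM; p120γ 2-2.5 nM) with 10 μM di-C8-PIP2 pre-incubated 30 min at 25° C with compound, then 50 μM ATP added for 30-60 min at 25° C. Stopped, detected after 1 and 18 h; IC50 from variable-slope fit.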
(TR-FRET usually uses a lanthanide donor and a delayed reading to cut background.)

The next test deals with T2, PI3Kβ (p110β/p85α) (Homo sapiens, UniProt P42338).
T2 construct: purchased BPS Bioscience (San Diego, Calif.) or Millipore (Billerica, Mass.)
T2 sequence (P42338 whole entry): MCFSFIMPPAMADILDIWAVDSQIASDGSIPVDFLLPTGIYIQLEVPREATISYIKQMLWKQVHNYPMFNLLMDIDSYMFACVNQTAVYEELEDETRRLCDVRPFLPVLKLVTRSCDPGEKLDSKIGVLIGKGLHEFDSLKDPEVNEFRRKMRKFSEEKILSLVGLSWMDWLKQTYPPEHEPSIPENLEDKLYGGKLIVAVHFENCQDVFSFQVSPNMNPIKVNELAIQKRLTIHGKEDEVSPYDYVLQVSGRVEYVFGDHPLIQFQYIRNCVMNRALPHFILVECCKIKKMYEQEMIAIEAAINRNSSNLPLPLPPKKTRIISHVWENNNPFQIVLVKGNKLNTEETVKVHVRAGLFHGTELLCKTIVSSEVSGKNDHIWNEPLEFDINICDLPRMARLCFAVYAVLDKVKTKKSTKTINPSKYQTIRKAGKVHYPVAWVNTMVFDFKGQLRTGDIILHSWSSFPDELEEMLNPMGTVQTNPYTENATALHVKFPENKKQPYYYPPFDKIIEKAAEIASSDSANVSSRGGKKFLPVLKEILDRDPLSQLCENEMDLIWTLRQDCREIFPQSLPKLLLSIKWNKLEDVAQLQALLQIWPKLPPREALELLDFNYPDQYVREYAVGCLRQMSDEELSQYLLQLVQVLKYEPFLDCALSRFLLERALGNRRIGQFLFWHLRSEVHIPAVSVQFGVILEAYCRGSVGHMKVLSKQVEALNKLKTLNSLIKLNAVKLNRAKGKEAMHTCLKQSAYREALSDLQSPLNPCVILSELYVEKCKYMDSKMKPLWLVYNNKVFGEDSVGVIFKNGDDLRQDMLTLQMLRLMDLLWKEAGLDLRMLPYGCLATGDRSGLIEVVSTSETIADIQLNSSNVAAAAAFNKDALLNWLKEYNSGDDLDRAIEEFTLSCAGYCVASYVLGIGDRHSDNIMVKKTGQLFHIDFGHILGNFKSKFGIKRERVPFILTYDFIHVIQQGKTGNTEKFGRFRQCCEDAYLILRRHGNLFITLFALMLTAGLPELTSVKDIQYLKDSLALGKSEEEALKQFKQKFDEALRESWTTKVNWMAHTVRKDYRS
T2 sequence (P27986 whole entry partner): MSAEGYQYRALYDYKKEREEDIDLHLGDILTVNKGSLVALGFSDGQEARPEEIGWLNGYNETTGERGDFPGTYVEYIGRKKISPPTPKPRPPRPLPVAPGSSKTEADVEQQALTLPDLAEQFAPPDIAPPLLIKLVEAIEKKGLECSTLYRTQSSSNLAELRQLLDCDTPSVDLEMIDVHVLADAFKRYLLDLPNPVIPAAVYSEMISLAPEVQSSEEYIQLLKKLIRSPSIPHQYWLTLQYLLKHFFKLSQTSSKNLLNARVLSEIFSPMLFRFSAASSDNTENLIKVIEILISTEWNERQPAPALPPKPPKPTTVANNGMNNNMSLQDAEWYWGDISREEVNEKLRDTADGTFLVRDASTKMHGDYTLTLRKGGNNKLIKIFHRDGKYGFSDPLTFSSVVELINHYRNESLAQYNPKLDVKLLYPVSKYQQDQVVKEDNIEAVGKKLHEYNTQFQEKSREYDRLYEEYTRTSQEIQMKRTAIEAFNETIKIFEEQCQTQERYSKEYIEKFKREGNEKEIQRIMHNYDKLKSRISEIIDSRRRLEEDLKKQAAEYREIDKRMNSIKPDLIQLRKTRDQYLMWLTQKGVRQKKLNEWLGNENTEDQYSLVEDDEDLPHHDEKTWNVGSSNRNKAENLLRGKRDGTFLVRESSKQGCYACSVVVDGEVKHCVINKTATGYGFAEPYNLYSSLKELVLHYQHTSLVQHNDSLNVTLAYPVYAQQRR
The test is described as follows: HTRF assay, potency against active PI3Kβ. In kind it is biochemical. As to conditions: [ATP]=50 μM, [di-C8-PIP2]=10 μM, 30 min pre-incubation, read-out: PI3Kβ Inhibition. As for the experimental part:
Homogeneous Time Resolved Fluorescence (HTRF) Assay Protocol for Potency Assessment Against the Active Forms of PI3Kα, PI3Kβ, and PI3Kγ
The mechanics of the assay platform are best described by the vendor (Millipore, Billerica, Mass.) on their website at the following URL: www.millipore.com/coa/tech1/74jt4z.
Briefly, Stop solution (Stop A, #33-007 and Stop B, #33-009; 3:1 ratio) and Detection Mix (from DMC, #33-015 with DMA, #33-011 and DMB, #33-013; 18:1:1 ratio) were prepared as recommended by the manufacturer about 2 hrs prior to use. […] Lipid kinase reactions were started with the addition of 5 μL of ATP solution, mixed for 15 sec on a rotary plate shaker and incubated for 30-60 minutes at 25° C. Next, reactions were stopped with a 5 μL addition of Stop solution immediately followed by a 5 μL volume of Detection Mix. […] At the conclusion of each assay, the HTRF ratio from fluorescence emission values for each well was calculated and % Inhibition determined from averaged controls wells (+/−PI3K enzyme). % Inhibition values for each compound were then plotted against inhibitor concentration to estimate IC50 from log [Inhibitor] vs Response, Variable Slope model in GraphPad Prism from GraphPad Software (San Diego, Calif.).

A further test deals with PI3K. The test is described as follows: PI3K HCT116 cellular assay (Western blot). In kind it is cell-based. As to conditions: Homo sapiens, HCT-116, HCT116 colon cancer cells, 1 hour incubation, read-out: PI3K Inhibition. How it is done: PI3K HCT116 Cellular Assay
Selected compounds were assayed in HCT116 colon cancer cells. […] Cells were then washed with PBS, lysed and the protein lysates were then recovered and analyzed by Western blot.
For orientation: Immunoblotting shows a protein as a band on a membrane.

Another test deals with SK-OV-3 cells. The test is described as follows: SK-OV-3 cell proliferation assay. In kind it is cell-based. As to conditions: Homo sapiens; SK-OV-3 proliferation, 72 hours, Cell Titer Glo. As for the experimental part:
SK-OV-3 Cell Proliferation Assay
For the SK-OV-3 proliferation Assay, 5000 cells per well were plated in Growth Media (DMEM, 10% FBS, 1% 1-glutamine, 1% penicillin/streptomycin) in 96 well plates. The following day, compounds were added to duplicate wells at concentrations of 10 uM and 3-fold dilutions down to 40 nM. The plates were returned to the incubator for 72 hours and then the assays were developed using Cell Titer Glo (Promega, Madison, Wis.) according to manufacturer's instructions.
In general terms: Cellular ATP, detected with luciferase, serves as a proxy for viable cell number.

Another test relates to HCT116 cells. The test is described as follows: HCT-116 cell proliferation assay. In kind it is cell-based. As to conditions: Homo sapiens, 72 hours, Cell Titer Glo. How it is done:
HCT-116 Cell Proliferation Assay
For the HCT116 Proliferation Assay, 3000 cells per well were plated in Growth Media (DMEM, 10% FBS, 1% 1-glutamine, 1% penicillin/streptomycin) in 96 well plates. The following day, compounds were added to duplicate wells at concentrations of 10 uM and 3-fold dilutions down to 40 nM. The plates were returned to the incubator for 72 hours and then the assays were developed using Cell Titer Glo (Promega, Madison, Wis.) according to manufacturer's instructions.

The target of another test is T3, PI3Kα (p110α/p85α) (Homo sapiens, UniProt P42336).
T3 construct: purchased BPS Bioscience (San Diego, Calif.) or Millipore (Billerica, Mass.)
T3 sequence (P42336 whole entry): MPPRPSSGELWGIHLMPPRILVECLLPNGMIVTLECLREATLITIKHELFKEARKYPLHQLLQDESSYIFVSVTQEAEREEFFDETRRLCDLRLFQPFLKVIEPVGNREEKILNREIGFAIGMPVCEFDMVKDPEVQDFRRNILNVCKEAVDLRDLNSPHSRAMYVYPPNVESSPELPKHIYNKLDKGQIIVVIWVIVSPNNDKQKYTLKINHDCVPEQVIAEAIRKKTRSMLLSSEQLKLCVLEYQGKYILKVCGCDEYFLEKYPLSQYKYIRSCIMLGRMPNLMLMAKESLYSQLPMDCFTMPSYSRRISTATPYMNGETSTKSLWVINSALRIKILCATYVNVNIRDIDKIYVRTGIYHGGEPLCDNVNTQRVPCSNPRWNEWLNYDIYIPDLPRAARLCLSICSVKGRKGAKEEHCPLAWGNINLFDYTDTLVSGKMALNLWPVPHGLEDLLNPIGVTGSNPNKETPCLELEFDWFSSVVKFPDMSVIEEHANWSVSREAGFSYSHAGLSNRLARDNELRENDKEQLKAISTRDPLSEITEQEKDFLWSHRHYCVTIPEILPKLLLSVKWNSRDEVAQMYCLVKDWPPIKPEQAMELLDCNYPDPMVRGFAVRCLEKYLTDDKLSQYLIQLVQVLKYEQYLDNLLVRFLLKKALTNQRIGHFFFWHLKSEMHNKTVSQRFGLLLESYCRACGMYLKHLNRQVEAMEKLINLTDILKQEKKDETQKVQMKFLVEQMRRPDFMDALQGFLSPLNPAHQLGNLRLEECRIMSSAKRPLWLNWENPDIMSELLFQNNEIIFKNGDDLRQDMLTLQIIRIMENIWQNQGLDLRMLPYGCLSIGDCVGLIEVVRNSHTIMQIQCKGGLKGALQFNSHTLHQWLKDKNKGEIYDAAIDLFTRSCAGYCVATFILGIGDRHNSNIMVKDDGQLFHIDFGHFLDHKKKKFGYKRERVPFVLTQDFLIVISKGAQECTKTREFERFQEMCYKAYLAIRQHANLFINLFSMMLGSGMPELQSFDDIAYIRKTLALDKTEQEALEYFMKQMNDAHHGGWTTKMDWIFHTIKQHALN
T3 sequence (P27986 whole entry partner): as the sequence (P27986 whole entry partner) above
Description: HTRF assay, potency against active PI3Kα. In kind it is biochemical. To be noted: HTRF; [ATP]=50 μM, [di-C8-PIP2]=10 μM; 30 min pre-incubation; read-out: PI3Kα Inhibition. In a few lines: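 Active p110/p85α lipid kinase reactions were started with ATP and run 30-60 minutes at 25 °C, then stopped and developed with HTRF detection mix. HTRF ratio converted to % inhibition against ±enzyme controls; IC50 from log[inhibitor] vs response, variable slope.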

The target in the next test is PI3Kα (Homo sapiens, UniProt P42336). Description: Mass spectrometry of intact PI3Kα (Johns Hopkins), 3 hr incubation. On the set-up: Johns Hopkins. As to conditions: 10× fold excess of compound, MALDI. In kind it is binding. As for the experimental part: Mass Spectrometry for PI3K
Sequence of PI3Kα (P42336 whole entry): as the sequence (P42336 whole entry) above
Sequence of PI3Kα (P27986 322-600 partner limits assumed): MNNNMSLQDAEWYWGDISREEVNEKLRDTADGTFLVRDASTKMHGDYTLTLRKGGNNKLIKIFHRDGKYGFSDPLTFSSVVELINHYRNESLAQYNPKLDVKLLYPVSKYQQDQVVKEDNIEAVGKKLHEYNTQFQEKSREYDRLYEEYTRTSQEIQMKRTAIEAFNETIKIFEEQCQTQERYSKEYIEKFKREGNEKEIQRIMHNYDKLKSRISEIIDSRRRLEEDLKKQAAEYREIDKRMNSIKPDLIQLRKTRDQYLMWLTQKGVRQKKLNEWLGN
Intact PI3Kα (Johns Hopkins) was incubated for 3 hr at a 10× fold excess of II-a-45 or II-a-49 to protein. Aliquots (3 μL) of the samples were diluted with 10 μL of 0.1% TFA prior to micro C4 ZipTipping directly onto the MALDI target using Sinapinic acid as the desorption matrix (10 mg/ml in 0.1% TFA:Acetonitrile 50:50).

In a further test the test system is Phospho-Akt(Ser473). The test is described as follows: Dose response in SKOV3 cells as determined by in-cell Western. In kind it is cell-based. As to conditions: Homo sapiens, SK-OV-3. The procedure, abridged:
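SKOV3 cells treated with compound for 1 hr, then formaldehyde-fixed, permeabilised and stained overnight for phospho-Akt(Ser473) with anti-tubulin as a reference. Infrared secondary antibodies read at 680 and 800 nm channels by in-cell Western imaging.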

For a further test, the system named is PI3 kinase. The test is described as follows: Comparison of covalent and non-covalent inhibitors (Tables 18 and 19): prolonged PD, mechanism. As to conditions: Table 18. How it is done:
“A” designates ≦10 nM; “B” designates 10-100 nM; and “C” designates 100-1000 nM

“Also recorded” adds a separate entry of the source. Read-outs that look alike come from different tables or passages of the source.

T1 sequence (P48736 whole entry): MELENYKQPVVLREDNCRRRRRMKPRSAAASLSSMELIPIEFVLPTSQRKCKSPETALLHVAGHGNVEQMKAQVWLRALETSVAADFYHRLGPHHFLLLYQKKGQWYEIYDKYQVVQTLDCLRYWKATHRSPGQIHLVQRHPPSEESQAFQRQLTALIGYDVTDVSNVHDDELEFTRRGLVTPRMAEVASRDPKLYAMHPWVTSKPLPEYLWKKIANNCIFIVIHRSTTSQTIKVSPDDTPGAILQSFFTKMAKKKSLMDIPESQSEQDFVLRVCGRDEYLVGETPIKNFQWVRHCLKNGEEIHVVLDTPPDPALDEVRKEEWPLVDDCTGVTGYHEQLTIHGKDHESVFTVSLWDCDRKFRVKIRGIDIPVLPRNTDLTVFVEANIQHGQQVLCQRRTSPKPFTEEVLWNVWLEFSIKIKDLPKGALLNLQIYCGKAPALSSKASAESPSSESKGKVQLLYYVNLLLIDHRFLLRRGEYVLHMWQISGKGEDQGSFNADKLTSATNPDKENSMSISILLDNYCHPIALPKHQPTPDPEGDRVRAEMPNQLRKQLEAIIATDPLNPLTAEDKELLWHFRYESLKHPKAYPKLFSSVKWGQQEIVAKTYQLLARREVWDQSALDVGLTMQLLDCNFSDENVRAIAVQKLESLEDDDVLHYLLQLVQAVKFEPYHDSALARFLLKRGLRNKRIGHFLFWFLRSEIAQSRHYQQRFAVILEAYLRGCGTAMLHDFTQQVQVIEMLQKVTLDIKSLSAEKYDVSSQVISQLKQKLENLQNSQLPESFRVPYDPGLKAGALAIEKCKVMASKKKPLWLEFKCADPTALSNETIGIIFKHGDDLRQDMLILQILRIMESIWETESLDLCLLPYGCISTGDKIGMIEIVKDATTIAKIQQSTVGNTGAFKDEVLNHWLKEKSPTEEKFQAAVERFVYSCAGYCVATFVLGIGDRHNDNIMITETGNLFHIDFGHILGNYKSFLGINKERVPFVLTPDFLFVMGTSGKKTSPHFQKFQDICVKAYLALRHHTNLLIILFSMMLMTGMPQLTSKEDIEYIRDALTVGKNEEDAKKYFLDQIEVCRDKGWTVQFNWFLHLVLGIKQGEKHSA

For `C=C(C)C(=O)CCC(=O)N1CCN(Cc2cc3nc(-c4cccc5[nH]ncc45)nc(N4CCOCC4)c3s2)CC1` [II-a-43, 1-(4-((2-(1H-indazol-4-yl)-4-morpholinothieno[3,2-d]pyrimidin-6-yl)methyl)piperazin-1-yl)-5-methylhex-5-ene-1,4-dione], the IC50 at PI3Kγ (p120γ) was over 1000 nM; at PI3Kβ (p110β/p85α), over 1000 nM; on PI3Kα (p110α/p85α), 10 to 100 nM. For the same compound, the results for the EC50 in the test on PI3K, in the test with SK-OV-3 cells and in the test on HCT116 cells were under 20 nM, 100 to 1000 nM and 100 to 1000 nM, respectively. Besides, the “covalent modification of PI3Kα” value on PI3Kα is “completely modify”.

For the compound `CCC(=O)Nc1ccc(CCNC(=O)c2cc3nc(-c4cccc5[nH]ncc45)nc(N4CCOCC4)c3s2)cc1` [II^R-a-148, 2-(1H-indazol-4-yl)-4-morpholino-N-(4-propionamidophenethyl)thieno[3,2-d]pyrimidine-6-carboxamide], the EC50 was in the range of 100 to 1000 nM with Phospho-Akt(Ser473) (SKOV3 cells, 1 hr, read-out: pAKT Inhibition in cell Western) and 100 to 1000 nM in the test with Phospho-Akt(Ser473) (Table 18, assay not given, classes agree with Table 23, read-out: EC50 pAkt^Ser473). Moreover, the IC50 at PI3Kγ (p120γ) was over 1000 nM; on PI3Kβ (p110β/p85α), over 1000 nM; on PI3Kα (p110α/p85α), 100 to 1000 nM. Also, the “Prolonged PD” value with PI3 kinase was “No”.

In the case of `C=C(C)C(=O)CCC(=O)N1CCN(Cc2cc3nc(-c4cccc(O)c4)nc(N4CCOCC4)c3s2)CC1` [II-a-49, 1-(4-((2-(3-hydroxyphenyl)-4-morpholinothieno[3,2-d]pyrimidin-6-yl)methyl)piperazin-1-yl)-5-methylhex-5-ene-1,4-dione], the IC50 was over 1000 nM on PI3Kγ (p120γ) and 10 to 100 nM at PI3Kα (p110α/p85α). Further, the EC50 in the test on PI3K was under 20 nM; in the test on SK-OV-3 cells, 100 to 1000 nM; with HCT116 cells, 100 to 1000 nM. Also, the “covalent modification of PI3Kα” value at PI3Kα is given as “complete modification; also recorded: covalent modification”. Besides, on PI3Kα, the “positive mass shift of PI3Kα” value is 616 Da.

For the compound `O=C(/C=C/C1CC1)CCC(=O)N1CCN(Cc2cc3nc(-c4cccc5[nH]ncc45)nc(N4CCOCC4)c3s2)CC1` [II-a-55, (E)-1-(4-((2-(1H-indazol-4-yl)-4-morpholinothieno[3,2-d]pyrimidin-6-yl)methyl)piperazin-1-yl)-6-cyclopropylhex-5-ene-1,4-dione], the IC50 at PI3Kγ (p120γ) is over 1000 nM; at PI3Kβ (p110β/p85α), over 1000 nM; at PI3Kα (p110α/p85α), 10 to 100 nM. Also, the EC50 with PI3K is 20 to 100 nM; in the test on SK-OV-3 cells, 1000 to 10000 nM; with HCT116 cells it was 100 to 1000 nM. The “covalent modification of PI3Kα” value at PI3Kα was “completely modify”.

Turning to `C/C=C/C(=O)CCC(=O)N1CCN(Cc2cc3nc(-c4cccc(O)c4)nc(N4CCOCC4)c3s2)CC1` [II-a-50, (E)-1-(4-((2-(3-hydroxyphenyl)-4-morpholinothieno[3,2-d]pyrimidin-6-yl)methyl)piperazin-1-yl)hept-5-ene-1,4-dione], the IC50 is over 1000 nM at PI3Kγ (p120γ) and under 10 nM at PI3Kα (p110α/p85α). The EC50 in the test with PI3K was under 20 nM; with SK-OV-3 cells it was 100 to 1000 nM; with HCT116 cells it was 100 to 1000 nM. Further, the “covalent modification of PI3Kα” value at PI3Kα was “completely modify”.

For the compound `CC/C=C/C(=O)CCC(=O)N1CCN(Cc2cc3nc(-c4cccc5[nH]ncc45)nc(N4CCOCC4)c3s2)CC1` [II-a-53, (E)-1-(4-((2-(1H-indazol-4-yl)-4-morpholinothieno[3,2-d]pyrimidin-6-yl)methyl)piperazin-1-yl)oct-5-ene-1,4-dione], the figures for the IC50 on PI3Kγ (p120γ) and at PI3Kα (p110α/p85α) were over 1000 nM and under 10 nM, respectively. The EC50 in the test with PI3K fell in the range of 20 to 100 nM; in the test with SK-OV-3 cells, 100 to 1000 nM; in the test with HCT116 cells, 100 to 1000 nM. Further, the “covalent modification of PI3Kα” value at PI3Kα is on record as “completely modify”.

For the origin of these results see patent US20110230476A1, “PI3 KINASE INHIBITORS AND USES THEREOF” (AVILA THERAPEUTICS, INC., priority 2009, published 2011).
